Where two headings read alike, the source gives them in different places.
Key:
OATP1A2 = settings: in vitro; cited from earlier work
OATP1B1 = settings: in vitro; cited from earlier work
OATP2B1 = settings: in vitro; cited from earlier work
[1] = format: in vivo, human; settings: for A e, amount excreted unchanged into urine over 24 hours / CL renal / AUC(0-t) / AUC(0-inf): geometric mean; for CL renal: plasma and urine, CLrenal; for AUC(0-inf): AUC0–∞
[2] = Acute hemodynamic response to lisinopril; format: in vivo, human
[3] = cited from earlier work
PEPT1 = settings: Caco-2 cells; cited from earlier work
[4] = stated as similar for lisinopril and nadolol

## O=C(O[C@@H]1Cc2c(O)cc(O)cc2O[C@@H]1c1cc(O)c(O)c(O)c1)c1cc(O)c(O)c(O)c1 [EGCG, (–)‐epigallocatechin gallate]
OATP1A2
  inhibition of OATP1A2 activity: have been shown to inhibit
OATP1B1
  inhibition of OATP1B1 activity: have been shown to inhibit
OATP2B1
  inhibition of OATP2B1 activity: have been shown to inhibit

## NCCCC[C@H](N[C@@H](CCc1ccccc1)C(=O)O)C(=O)N1CCC[C@H]1C(=O)O [lisinopril]
[1]; GTE vs control, P < 0.001
  decrease in AUC0-24 in the GTE phase compared with control phase: 69%
  decrease in AUC0–∞ in the GTE phase compared with control phase: 67%
  decrease in C max in the GTE phase compared with control phase: 71%
[1]; GTE
  A e, amount excreted unchanged into urine over 24 hours: 0.54 mg
[1]; both, human, po, 10 mg, GTE
  CL renal: 56.9 mL/min
[1]; both, human, po, 10 mg, control (water)
  CL renal: 57.7 mL/min
[1]; both, human, plasma, po, 10 mg
  Tmax: 6 h
[1]; both, human, plasma, po, 10 mg, AUC0–24, GTE
  AUC(0-t): 157 ng·h/mL
[1]; both, human, plasma, po, 10 mg, AUC0–24, control (water)
  AUC(0-t): 504 ng·h/mL
[1]; both, human, plasma, po, 10 mg, GTE
  AUC(0-inf): 186 ng·h/mL
[1]; both, human, plasma, po, 10 mg, control (water)
  AUC(0-inf): 554 ng·h/mL
[1]; control (water)
  A e, amount excreted unchanged into urine over 24 hours: 1.75 mg
[1]; geometric mean ratio GTE/control
  A e GMR (GTE/control): 0.307
[1]; ten subjects who completed the study, both phases
  adverse events: no adverse events
[2]; GTE phase, 6 hours after 10 mg oral lisinopril, mean ± SD, baseline 68 ± 10 mmHg
  DBP: 55 ± 4 mmHg
[2]; both phases, at 6 hours after the administration
  mean maximum decrease of DBP from baseline: about 20%
[2]; single oral dose 10 mg lisinopril
  SBP and PR, control vs GTE phases: no differences
[3]
  oral bioavailability: 29%
[3]; [4]
  oral bioavailability: ca. 30%

## CC(C)(C)NCC(O)COc1cccc2c1CC(O)C(O)C2 (stereo not drawn) [nadolol]
[3]; [4]
  oral bioavailability: ca. 30%

## (–)‐epicatechin gallate
PEPT1
  inhibition of uptake transport of glycyl-sarcosine, a typical substrate of PEPT1: not inhibiting
OATP1A2
  inhibition of OATP1A2 activity: have been shown to inhibit
OATP1B1
  inhibition of OATP1B1 activity: have been shown to inhibit
OATP2B1
  inhibition of OATP2B1 activity: have been shown to inhibit

From publication PMC7993260 (Clinical and Translational Science, 2020)
